Patent US4383113A, “Agricultural sulfonamides” (E. I. Du Pont de Nemours and Company, priority 1981, dated 1983)

What was measured:
[1] = tested on: kochia; assay: Test E pre-emergence; type: in vivo, Kochia scoparia
Description: (§1) The containers used were 25 cm diameter plastic pots filled with fertilized and limed Fallsington silt loam. Plantings of the following weed species were made twice, at a 10-day interval: mustard (Brassica arvensis), cocklebur (Xanthium spp.), morningglory (Ipomoea hederacea), cassia (Cassia tora), velvetleaf (Abutilon theophrasti), alfalfa (used as an indicator species), kochia (Kochia scoparia), sesbania (Sesbania exaltata), Russian thistle (Salsola kali), jimsonweed (Datura stramonium),and nutsedge (Cyperus rotundus). In addition, wheat and barley were planted in separate 15 cm diameter plastic pots filled with the same soil at the time of the early planting only. All plantings were treated with the test chemicals dissolved in a non-phytotoxic solvent immediately following completion of the second planting operation. At this time, the wheat was around 15-17.5 cm tall and the barley 12.5 to 15 cm tall, both in the 2-leaf stage of growth. The weed species of the earliest planting date were from 2.5 to 12.5 cm tall. The rates of application selected were 0.004, 0.007, 0.015 and 0.030 kg/ha for the weed phase and 0.12, 0.25 and 0.50 kg/ha for wheat and barley. The post-emergence part of this test was visually rated for plant response 21 days after treatment, and the pre-emergence part 28 days after treatment.

[2] = tested on: morningglory; assay: Test E pre-emergence; type: in vivo, Ipomoea hederacea
Description: as §1

[3] = tested on: Russian thistle; assay: Test E pre-emergence; type: in vivo, Salsola kali
Description: as §1

[4] = tested on: velvetleaf; assay: Test E pre-emergence; type: in vivo, Abutilon theophrasti
Description: as §1

[5] = tested on: nutsedge; assay: Test E pre-emergence; type: in vivo, Cyperus rotundus
Description: as §1

[6] = tested on: mustard; assay: Test E pre-emergence; type: in vivo, Brassica arvensis
Description: as §1

[7] = tested on: alfalfa; assay: Test E pre-emergence; type: in vivo; conditions: 1/256 kg/ha
Description: as §1

[8] = tested on: milkweed vine; assay: Test I perennial foliage spray; type: in vivo, Morrenia odorata
Description: (§2) Five-inch in diameter plastic pots were filled with a 50-50 mixture of Fallsington silt loam soil and sand and seeds of the following planted (one plant species per pot): milkweed vine (Morrenia odorata), plantain (Plantago spp.), burdock (Arctium minus), field bindweed (Convolvulus arvensis), dandelion (Taraxacum officinale), horsenettle (Solanum carolinense), bermudagrass (Cynodon dactylon), quackgrass (Agropyron repens), dallisgrass (Paspalum dilatatum) and johnsongrass (Sorghum halepense). The pots were placed in the greenhouse and the plants grown for several weeks.
(§3) The compound evaluated was diluted with a non-phytotoxic solvent and sprayed on the plant foliage. Untreated and solvent controls were included for comparison. One and eight weeks after treatment, a visual rating of the compound's effects on plant growth were made.

[9] = tested on: field bindweed; assay: Test I perennial foliage spray; type: in vivo, Convolvulus arvensis
Description: as §2, §3

[10] = tested on: dandelion; assay: Test I perennial foliage spray; type: in vivo, Taraxacum officinale
Description: as §2, §3

[11] = tested on: quackgrass; assay: Test I perennial foliage spray; type: in vivo, Agropyron repens
Description: as §2, §3

[12] = tested on: johnsongrass; assay: Test I perennial foliage spray; type: in vivo, Sorghum halepense
Description: as §2, §3

[13] = tested on: dallisgrass; assay: Test I perennial foliage spray; type: in vivo, Paspalum dilatatum
Description: as §2, §3

[14] = tested on: horsenettle; assay: Test I perennial foliage spray; type: in vivo, Solanum carolinense
Description: as §2, §3

[15] = tested on: bermudagrass; assay: Test I perennial foliage spray; type: in vivo, Cynodon dactylon; conditions: 1 week
Description: as §2, §3

[16] = tested on: burdock; assay: Test I perennial foliage spray; type: in vivo, Arctium minus
Description: as §2, §3

[17] = tested on: plantain; assay: Test I perennial foliage spray; type: in vivo, Plantago spp.
Description: as §2, §3

[18] = tested on: broomsedge; assay: Test K field post-emergence; type: in vivo; conditions: 16 weeks
Procedure: (§4) The response of a number of noxious weed species to post-emergence applications of the same compound as used in Test J was studied in another field test. At the time of treatment, one month after mowing, the mixed vegetation was approximately 15 cm tall. The chemical was applied in water containing 0.2% of Surfactant WK® at an overall volume of 500 l/ha. Each treatment was replicated three times. Approximately 5 cm of rainfall was recorded 4 days after treatment and an additional 37 cm fell before weed control ratings were made 16 weeks after treatment.

[19] = tested on: mixed vegetation, overall; assay: Test K field post-emergence; type: in vivo; conditions: 16 weeks
Procedure: as §4

[20] = tested on: broadleaves; assay: Test K field post-emergence; type: in vivo; conditions: 16 weeks
Procedure: as §4

[21] = tested on: purpletop; assay: Test K field post-emergence; type: in vivo; conditions: 16 weeks
Procedure: as §4

[22] = tested on: grasses; assay: Test K field post-emergence; type: in vivo; conditions: 16 weeks
Procedure: as §4

[23] = tested on: golden rod; assay: Test K field post-emergence; type: in vivo; conditions: 16 weeks
Procedure: as §4

[24] = tested on: poison ivy; assay: Test K field post-emergence; type: in vivo; conditions: 16 weeks
Procedure: as §4

[25] = tested on: dewberry; assay: Test K field post-emergence; type: in vivo; conditions: 16 weeks
Procedure: as §4

`COc1nc(C)nc(NC(=O)NS(=O)(=O)c2ccccc2C(=O)OC(C)C)n1` [drawing 588] showed a response rating ([1]; 1/32 kg/ha) of 10C, a response rating ([1]; 1/64 kg/ha) of 10C and a response rating ([1]; 1/128 kg/ha) of 10C. It also gave a response rating ([2]; 1/32 kg/ha) of 10C, a response rating ([2]; 1/64 kg/ha) of 10C and a response rating ([3]; 1/32 kg/ha) of 10C. The response rating ([3]; 1/64 kg/ha) was 10C, the response rating ([3]; 1/128 kg/ha) was 8C and the response rating ([3]; 1/256 kg/ha) was 7C. The response rating ([4]; 1/32 kg/ha) was 10C, the response rating ([4]; 1/64 kg/ha) was 10C and the response rating ([5]; 1/32 kg/ha) was 8G. It also gave a response rating ([5]; 1/64 kg/ha) of 8G, a response rating ([6]; 1/32 kg/ha) of 10C and a response rating ([6]; 1/64 kg/ha) of 10C. For the same molecule, the response rating ([6]; 1/128 kg/ha) was 10C, the response rating ([6]; 1/256 kg/ha) was 10C and the response rating [7] was 7G.

`COC(=O)c1ccccc1S(=O)(=O)NC(=O)Nc1nc(C)cc(C)n1` [drawing 611] gave a plant response rating ([8]; 1 week, 1/4 kg/ha) of 0, a plant response rating ([8]; 1 week, 1/8 kg/ha) of 0 and a plant response rating ([8]; 8 weeks, 1/4 kg/ha) of 10C. For the same molecule, the plant response rating ([8]; 8 weeks, 1/8 kg/ha) was 10C, the plant response rating ([9]; 1 week, 1/4 kg/ha) was 2C and the plant response rating ([9]; 1 week, 1/8 kg/ha) was 0. It also gave a plant response rating ([9]; 8 weeks, 1/4 kg/ha) of 8C, a plant response rating ([9]; 8 weeks, 1/8 kg/ha) of 7C and a plant response rating ([10]; 1 week, 1/4 kg/ha) of 0. It also gave a plant response rating ([10]; 1 week, 1/8 kg/ha) of 0, a plant response rating ([10]; 8 weeks, 1/4 kg/ha) of 10C and a plant response rating ([10]; 8 weeks, 1/8 kg/ha) of 10C. For the same molecule, the plant response rating ([11]; 1 week, 1/4 kg/ha) was 7C, the plant response rating ([11]; 1 week, 1/8 kg/ha) was 6C and the plant response rating ([11]; 8 weeks, 1/4 kg/ha) was 10C. For the same molecule, the plant response rating ([11]; 8 weeks, 1/8 kg/ha) was 10C, the plant response rating ([12]; 1 week, 1/4 kg/ha) was 9C and the plant response rating ([12]; 1 week, 1/8 kg/ha) was 8C. The plant response rating ([12]; 8 weeks, 1/4 kg/ha) was 10C, the plant response rating ([12]; 8 weeks, 1/8 kg/ha) was 10C and the plant response rating ([13]; 1 week, 1/4 kg/ha) was 6C. It also gave a plant response rating ([13]; 1 week, 1/8 kg/ha) of 6C, a plant response rating ([13]; 8 weeks, 1/4 kg/ha) of 10C and a plant response rating ([14]; 1 week, 1/4 kg/ha) of 1C. The plant response rating ([14]; 1 week, 1/8 kg/ha) was 0, the plant response rating ([14]; 8 weeks, 1/4 kg/ha) was 10C and the plant response rating ([14]; 8 weeks, 1/8 kg/ha) was 5C. It also gave a plant response rating ([15]; 1/4 kg/ha) of 6C, a plant response rating ([15]; 1/8 kg/ha) of 5C and a plant response rating ([16]; 1 week, 1/4 kg/ha) of 0. For the same molecule, the plant response rating ([16]; 1 week, 1/8 kg/ha) was 0, the plant response rating ([16]; 8 weeks, 1/4 kg/ha) was 10C and the plant response rating ([16]; 8 weeks, 1/8 kg/ha) was 4C. The plant response rating ([17]; 1 week, 1/4 kg/ha) was 0, the plant response rating ([17]; 1 week, 1/8 kg/ha) was 0 and the plant response rating ([17]; 8 weeks, 1/4 kg/ha) was 10C. It also gave a plant response rating ([17]; 8 weeks, 1/8 kg/ha) of 10C.

With `COC(=O)c1ccccc1S(=O)(=O)NC(=O)Nc1nc(C)cc(C)n1` [drawing 613] the “mean % weed control” value ([18]; 1.0 kg/ha) was 73%, the “mean % weed control” value ([18]; 2.0 kg/ha) was 86% and the “mean % weed control” value ([18]; .5 kg/ha) was 71%. For the same molecule, the “mean % weed control” value ([19]; 1.0 kg/ha) was 90%, the “mean % weed control” value ([19]; 2.0 kg/ha) was 94% and the “mean % weed control” value ([19]; .5 kg/ha) was 81%. The “mean % weed control” value ([20]; 1.0 kg/ha) was 96%, the “mean % weed control” value ([20]; 2.0 kg/ha) was 98% and the “mean % weed control” value ([20]; .5 kg/ha) was 91%. The “mean % weed control” value ([21]; 1.0 kg/ha) was 80%, the “mean % weed control” value ([21]; 2.0 kg/ha) was 92% and the “mean % weed control” value ([21]; .5 kg/ha) was 73%. The “mean % weed control” value ([22]; 1.0 kg/ha) was 84%, the “mean % weed control” value ([22]; 2.0 kg/ha) was 93% and the “mean % weed control” value ([22]; .5 kg/ha) was 81%. For the same molecule, the “mean % weed control” value ([23]; 1.0 kg/ha) was 100%, the “mean % weed control” value ([23]; 2.0 kg/ha) was 100% and the “mean % weed control” value ([23]; .5 kg/ha) was 100%. The “mean % weed control” value ([24]; 1.0 kg/ha) was 85%, the “mean % weed control” value ([24]; 2.0 kg/ha) was 95% and the “mean % weed control” value ([24]; .5 kg/ha) was 67%. For the same molecule, the “mean % weed control” value ([25]; 1.0 kg/ha) was 100%, the “mean % weed control” value ([25]; 2.0 kg/ha) was 100% and the “mean % weed control” value ([25]; .5 kg/ha) was 97%.
